Results published in ChEMBL document CHEMBL3044826, “Design, synthesis and biological evaluation of some novel substituted 2-mercapto-3-phenethylquinazolines as antitumor agents” (2013).

Columns and labels:
Assay type in all cases: functional
SF-539 = assay: Cytotoxicity against Homo sapiens (human) SF539 cells assessed as growth inhibition at 10 uM after 48 hr by coulter counter analysis; conditions: SF-539, 48 h, read-out: GI
COLO 205 = assay: Cytotoxicity against Homo sapiens (human) COLO205 cells assessed as growth inhibition at 10 uM after 48 hr by coulter counter analysis; conditions: COLO 205, 48 h, read-out: GI
SNB-19 = assay: Cytotoxicity against Homo sapiens (human) SNB19 cells assessed as growth inhibition at 10 uM after 48 hr by coulter counter analysis; conditions: SNB-19, 48 h, read-out: GI
M14 = assay: Cytotoxicity against Homo sapiens (human) M14 cells assessed as growth inhibition at 10 uM after 48 hr by coulter counter analysis; conditions: M14, 48 h, read-out: GI
Malme-3M = assay: Cytotoxicity against Homo sapiens (human) MALME-3M cells assessed as growth inhibition at 10 uM after 48 hr by coulter counter analysis; conditions: read-out: GI
MDA-MB-468 = assay: Cytotoxicity against Homo sapiens (human) MDA-MB-468 cells assessed as growth inhibition at 10 uM after 48 hr by coulter counter analysis; conditions: MDA-MB-468, 48 h, read-out: GI
HOP-62 = assay: Cytotoxicity against Homo sapiens (human) HOP62 cells assessed as growth inhibition at 10 uM after 48 hr by coulter counter analysis; conditions: HOP-62, 48 h, read-out: GI
EKVX = assay: Cytotoxicity against Homo sapiens (human) EKVX cells assessed as growth inhibition at 10 uM after 48 hr by coulter counter analysis; conditions: read-out: GI
UACC-62 = assay: Cytotoxicity against Homo sapiens (human) UACC62 cells assessed as growth inhibition at 10 uM after 48 hr by coulter counter analysis; conditions: UACC-62, 48 h, read-out: GI
TK-10 = assay: Cytotoxicity against Homo sapiens (human) TK10 cells assessed as growth inhibition at 10 uM after 48 hr by coulter counter analysis; conditions: TK-10, 48 h, read-out: GI
SNB-75 = assay: Cytotoxicity against Homo sapiens (human) SNB75 cells assessed as growth inhibition at 10 uM after 48 hr by coulter counter analysis; conditions: SNB-75, 48 h, read-out: GI
PC-3 = assay: Cytotoxicity against Homo sapiens (human) PC3 cells assessed as growth inhibition at 10 uM after 48 hr by coulter counter analysis; conditions: PC-3, 48 h, read-out: GI
OVCAR-3 = assay: Cytotoxicity against Homo sapiens (human) OVCAR3 cells assessed as growth inhibition at 10 uM after 48 hr by coulter counter analysis; conditions: OVCAR-3, 48 h, read-out: GI
HT-29 = assay: Cytotoxicity against Homo sapiens (human) HT-29 cells assessed as growth inhibition at 10 uM after 48 hr by coulter counter analysis; conditions: HT-29, 48 h, read-out: GI
A498 = assay: Cytotoxicity against Homo sapiens (human) A498 cells assessed as growth inhibition at 10 uM after 48 hr by coulter counter analysis; conditions: A498, 48 h, read-out: GI
SN12C = assay: Cytotoxicity against Homo sapiens (human) SN12C cells assessed as growth inhibition at 10 uM after 48 hr by coulter counter analysis; conditions: read-out: GI
SW-620 = assay: Cytotoxicity against Homo sapiens (human) SW620 cells assessed as growth inhibition at 10 uM after 48 hr by coulter counter analysis; conditions: SW-620, 48 h, read-out: GI
SF-268 = assay: Cytotoxicity against Homo sapiens (human) SF268 cells assessed as growth inhibition at 10 uM after 48 hr by coulter counter analysis; conditions: SF-268, 48 h, read-out: GI
KM12 = assay: Cytotoxicity against Homo sapiens (human) KM12 cells assessed as growth inhibition at 10 uM after 48 hr by coulter counter analysis; conditions: KM12, 48 h, read-out: GI
BT-549 = assay: Cytotoxicity against Homo sapiens (human) BT549 cells assessed as growth inhibition at 10 uM after 48 hr by coulter counter analysis; conditions: BT-549, 48 h, read-out: GI
HCC 2998 = assay: Cytotoxicity against Homo sapiens (human) HCC2998 cells assessed as growth inhibition at 10 uM after 48 hr by coulter counter analysis; conditions: HCC 2998, 48 h, read-out: GI
[1] = Cytotoxicity against Homo sapiens (human) NCI-ADR-RES cells assessed as growth inhibition at 10 uM after 48 hr by coulter counter analysis; conditions: read-out: GI
HCT-116 = assay: Cytotoxicity against Homo sapiens (human) HCT116 cells assessed as growth inhibition at 10 uM after 48 hr by coulter counter analysis; conditions: HCT-116, 48 h, read-out: GI
LOX IMVI = assay: Cytotoxicity against Homo sapiens (human) LOXIMVI cells assessed as growth inhibition at 10 uM after 48 hr by coulter counter analysis; conditions: read-out: GI
UO-31 = assay: Cytotoxicity against Homo sapiens (human) UO31 cells assessed as growth inhibition at 10 uM after 48 hr by coulter counter analysis; conditions: UO-31, 48 h, read-out: GI
CAKI-1 = assay: Cytotoxicity against Homo sapiens (human) Caki1 cells assessed as growth inhibition at 10 uM after 48 hr by coulter counter analysis; conditions: CAKI-1, 48 h, read-out: GI
SK-MEL-5 = assay: Cytotoxicity against Homo sapiens (human) SK-MEL-5 cells assessed as growth inhibition at 10 uM after 48 hr by coulter counter analysis; conditions: SK-MEL-5, 48 h, read-out: GI
A549 = assay: Cytotoxicity against Homo sapiens (human) A549 cells assessed as growth inhibition at 10 uM after 48 hr by coulter counter analysis; conditions: A549, 48 h, read-out: GI
NCI-H23 = assay: Cytotoxicity against Homo sapiens (human) NCI-H23 cells assessed as growth inhibition at 10 uM after 48 hr by coulter counter analysis; conditions: NCI-H23, 48 h, read-out: GI
OVCAR-8 = assay: Cytotoxicity against Homo sapiens (human) OVCAR8 cells assessed as growth inhibition at 10 uM after 48 hr by coulter counter analysis; conditions: OVCAR-8, 48 h, read-out: GI
OVCAR-4 = assay: Cytotoxicity against Homo sapiens (human) OVCAR4 cells assessed as growth inhibition at 10 uM after 48 hr by coulter counter analysis; conditions: OVCAR-4, 48 h, read-out: GI
DU-145 = assay: Cytotoxicity against Homo sapiens (human) DU145 cells assessed as growth inhibition at 10 uM after 48 hr by coulter counter analysis; conditions: DU-145, 48 h, read-out: GI
SF-295 = assay: Cytotoxicity against Homo sapiens (human) SF295 cells assessed as growth inhibition at 10 uM after 48 hr by coulter counter analysis; conditions: SF-295, 48 h, read-out: GI
SK-OV-3 = assay: Cytotoxicity against Homo sapiens (human) SKOV3 cells assessed as growth inhibition at 10 uM after 48 hr by coulter counter analysis; conditions: SK-OV-3, 48 h, read-out: GI

Compound	inhibition of growth at 10 µM (SF-539) [%]	inhibition of growth at 10 µM (COLO 205) [%]	inhibition of growth at 10 µM (SNB-19) [%]	inhibition of growth at 10 µM (M14) [%]	inhibition of growth at 10 µM (Malme-3M) [%]	inhibition of growth at 10 µM (MDA-MB-468) [%]	inhibition of growth at 10 µM (HOP-62) [%]	inhibition of growth at 10 µM (EKVX) [%]	inhibition of growth at 10 µM (UACC-62) [%]	inhibition of growth at 10 µM (TK-10) [%]	inhibition of growth at 10 µM (SNB-75) [%]	inhibition of growth at 10 µM (PC-3) [%]	inhibition of growth at 10 µM (OVCAR-3) [%]	inhibition of growth at 10 µM (HT-29) [%]	inhibition of growth at 10 µM (A498) [%]	inhibition of growth at 10 µM (SN12C) [%]	inhibition of growth at 10 µM (SW-620) [%]	inhibition of growth at 10 µM (SF-268) [%]	inhibition of growth at 10 µM (KM12) [%]	inhibition of growth at 10 µM (BT-549) [%]	other results
COc1ccc(-n2c(S)nnc2CSc2nc3ccccc3c(=O)n2CCc2ccccc2)cc1	< 10	< 10	< 10	< 10	< 10	38	< 10	31	19	< 10	< 10	30	< 10	< 10	51	< 10	< 10	< 10	< 10	< 10	inhibition of growth at 10 µM (HCC 2998): < 10%; inhibition of growth at 10 µM [1]: < 10%; inhibition of growth at 10 µM (HCT-116): < 10%; inhibition of growth at 10 µM (LOX IMVI): < 10%; inhibition of growth at 10 µM (UO-31): 30%; inhibition of growth at 10 µM (CAKI-1): 17%; inhibition of growth at 10 µM (SK-MEL-5): 24%; inhibition of growth at 10 µM (A549): < 10%; inhibition of growth at 10 µM (NCI-H23): < 10%; inhibition of growth at 10 µM (OVCAR-8): < 10%; inhibition of growth at 10 µM (OVCAR-4): < 10%; inhibition of growth at 10 µM (DU-145): < 10%; inhibition of growth at 10 µM (SF-295): 12%; inhibition of growth at 10 µM (SK-OV-3): < 10%
O=C(CSc1nc2ccccc2c(=O)n1CCc1ccccc1)c1ccccc1	< 10	< 10	< 10	< 10	14	14	< 10	18	16	< 10	18	14	< 10	< 10	46	< 10	< 10	< 10	< 10	< 10	inhibition of growth at 10 µM (HCC 2998): < 10%; inhibition of growth at 10 µM [1]: < 10%; inhibition of growth at 10 µM (HCT-116): 19%; inhibition of growth at 10 µM (LOX IMVI): < 10%; inhibition of growth at 10 µM (UO-31): 22%; inhibition of growth at 10 µM (CAKI-1): 22%; inhibition of growth at 10 µM (SK-MEL-5): < 10%; inhibition of growth at 10 µM (A549): 18%; inhibition of growth at 10 µM (NCI-H23): < 10%; inhibition of growth at 10 µM (OVCAR-8): 15%; inhibition of growth at 10 µM (OVCAR-4): < 10%; inhibition of growth at 10 µM (DU-145): < 10%; inhibition of growth at 10 µM (SF-295): 18%; inhibition of growth at 10 µM (SK-OV-3): < 10%
